Assay [1] relates to serotonin-2 receptors. The assay can be described thus: Anti-serotonin (5-HT) action: 5-HT-induced contraction of isolated superior mesenteric artery. To be noted: contraction by 10^−5 M 5-HT taken as 100%, guinea pig superior mesenteric artery. The protocol: (1) Anti-Serotonin (5-HT) Action
A preparation cut in a helical form was suspended under resting-tension of 0.3 g in a Magnus cylinder filled with the Tyrode solution which had been aerated with a gas mixture of 95% O2 and 5% CO2 and maintained at 37° C. Using an isometric transducer (“UL-10”, manufactured by SHINKOH K. K.) and a pressure preamplifier (“DSA-605A”, manufactured by SHINKOH K. K.), variations in tension were measured. The isometric tensions were recorded on a pen-writing recorder (“VP-6537A”, manufactured by NATIONAL K. K.). Taking the contraction induced by 10^−5 M serotonin (5-HT) as 100%, the percent contractions by 10^−5 M 5-HT in the presence of each test drug at 10^−7 M and 10^−6 M were determined as anti-5-HT action.

For assay [2], the system named is α1 receptors. The assay can be described thus: Anti-α1 action: norepinephrine-induced tonic contraction of isolated thoracic aorta. To be noted: tonic contraction by 10^−5 M norepinephrine taken as 100%, guinea pig thoracic aorta. How it is done: The thoracic aorta of each Hartley male guinea pig (body weight: 300–500 g) was excised. A preparation cut in a helical form was suspended under 1 g load in a Magnus cylinder filled with the Tyrode solution which had been aerated with a gas mixture of 95% O2 and 5% CO2 and maintained at 37° C. Using an isometric transducer (“TB-612J”, manufactured by Nihon Kohden Corporation) and a pressure preamplifier (“AP-620G”, manufactured by Nihon Kohden Corporation), variations in tension were measured. The isometric tensions were recorded on a thermal pen-writing recorder (“WT-647G”, manufactured by Nihon Kohden Corporation). Taking the tonic contraction induced by 10^−5 M norepinephrine (NE) as 100%, the percent contractions upon addition of each test drug at 10^−8 M and 10^−7 M were determined and recorded as α1 action.

`Cn1ccc2c1C(=O)CCN(CCCN1CCC(C(=O)c3ccc(F)cc3)CC1)S2(=O)=O` [Compound 22, 2-[3-[4-(4-fluorobenzoyl)piperidino]propyl]-6-methyl-3,4,5,6-tetrahydro-2H-pyrrolo[2,3-f][1,2]thiazepin-5-one 1,1-dioxide]: the “Anti 5-HT action (% of Control)” value in assay [1] (test drug 10^−6 M) is reported as 21.3 % of Control; in assay [1] (test drug 10^−7 M), 75.3 % of Control. For the same molecule, the results for the “Anti α1 action (% of Control)” value in assay [2] (test drug 10^−7 M) and in assay [2] (test drug 10^−8 M) were 64.9 % of Control and 91.2 % of Control, respectively.
For `Cn1ccc2c1C(O)CCN(CCCN1CCN(c3ccc(F)cc3)CC1)S2(=O)=O` (centres unmarked) [Compound 30, 2-[3-[4-(4-fluorophenyl)piperazin-1-yl]propyl]-5-hydroxy-6-methyl-3,4,5,6-tetrahydro-2H-pyrrolo[2,3-f][1,2]thiazepine 1,1-dioxide], the “Anti 5-HT action (% of Control)” value in assay [1] (test drug 10^−6 M) is 37.2 % of Control; in assay [1] (test drug 10^−7 M), 83.5 % of Control. The “Anti α1 action (% of Control)” value in assay [2] (test drug 10^−7 M) is 88.0 % of Control; in assay [2] (test drug 10^−8 M) it was 102.3 % of Control.
For `Cn1ccc2c1C(=NO)CN(CCCN1CCN(c3ccc(F)cc3)CC1)S2(=O)=O` [Compound 25, 2-[3-[4-(4-fluorophenyl)piperazin-1-yl]propyl]-4-hydroxyimino-5-methyl-2,3,4,5-tetrahydropyrrolo[2,3-e][1,2]thiazine 1,1-dioxide], the “Anti 5-HT action (% of Control)” value is 19.6 % of Control in assay [1] (test drug 10^−6 M) and 69.8 % of Control in assay [1] (test drug 10^−7 M). Besides, the figures for the “Anti α1 action (% of Control)” value in assay [2] (test drug 10^−7 M) and in assay [2] (test drug 10^−8 M) were 24.1 % of Control and 65.3 % of Control, respectively.
With `Cn1ccc2c1C(=NO)CN(CCCN1CCC(C(=O)c3ccc(F)cc3)CC1)S2(=O)=O` [Compound 26, 2-[3-[4-(4-fluorobenzoyl)piperidino]propyl]-4-hydroxyimino-5-methyl-2,3,4,5-tetrahydropyrrolo[2,3-e][1,2]thiazine 1,1-dioxide], the results for the “Anti 5-HT action (% of Control)” value in assay [1] (test drug 10^−6 M) and in assay [1] (test drug 10^−7 M) were 18.2 % of Control and 54.6 % of Control, respectively. Further, the “Anti α1 action (% of Control)” value is recorded as 73.1 % of Control in assay [2] (test drug 10^−7 M) and 99.6 % of Control in assay [2] (test drug 10^−8 M).
As for `Cn1ccc2c1C(=NO)CCN(CCCN1CCN(c3ccc(F)cc3)CC1)S2(=O)=O` [Compound 27, 2-[3-[4-(4-fluorophenyl)piperazin-1-yl]propyl]-5-hydroxyimino-6-methyl-3,4,5,6-tetrahydro-2H-pyrrolo[2,3-f][1,2]thiazepine 1,1-dioxide], the results for the “Anti 5-HT action (% of Control)” value in assay [1] (test drug 10^−6 M) and in assay [1] (test drug 10^−7 M) were 22.7 % of Control and 76.2 % of Control, respectively. In addition, the “Anti α1 action (% of Control)” value in assay [2] (test drug 10^−7 M) was 53.0 % of Control; in assay [2] (test drug 10^−8 M), 91.2 % of Control.

The record behind these values is patent US7057036B2, “Pyrrolothiazine and pyrrolothiazepine compounds having serotonin-2 receptor antagonistic and alpha-1-blocking action” (Daiichi Suntory Pharma Co., Ltd., priority 1997, dated 2006).
